In patent US20240315989A1 (priority 2021, published 2024):
Read-outs that look alike come from different tables or passages of the source.

Key:
[1] = system: LPS-induced cytokine production; conditions: human peripheral blood; cited from earlier work
[2] = system: HEK293T cell lines expressing ACE2 and TMPRSS2; conditions: FIG. 27; cited from earlier work
[3] = system: LPS- or fecal slurry-induced inflammatory response; conditions: cited from earlier work; for Survival: wildtype mice, LPS, IRE1-mediated inflammation, fecal-induced peritonitis
COVID-19 [4] = system: COVID-19
[5] = cited from earlier work
COVID-19 [6] = system: COVID-19; remark: listed apart in the source
SARS-CoV-2 infection = experiment: Retrospective cohort (BJC Healthcare): antidepressant exposure and ED or hospital encounter within 30 days; type: in vivo, human; conditions: share of exposed outpatients with an encounter after a positive SARS-CoV-2 test
[7] = depending on formulation; cited from earlier work
[8] = Description: All serious and non-serious adverse events were reported to study personnel as per local regulatory requirements. Reportable adverse events included serious adverse events, adverse events resulting in study medication discontinuation, and adverse events assessed as possibly related to study medication.
Because many patients who would ordinarily have been hospitalized were prevented from admission due to hospital over-capacity during peak waves, the composite endpoint addresses both hospitalization and a proxy for hospitalization, retention in a COVID-19 emergency hospital setting. This region of Brazil implemented hospital-like services in the emergency settings with 50-80 bed units providing services including multiday stays, oxygenation, and mechanical ventilation. […] Key secondary outcomes include viral clearance, time to clinical improvement, number of days with respiratory symptoms, time to hospitalization for any cause or due to COVID-19 progression, all-cause mortality and time to death from any causes, WHO clinical worsening scale score, days in hospital and on ventilator and adverse events, adverse reactions to the study medications, and the proportion of participants who are non-adherent with the study drugs.
The TOGETHER trial is the largest placebo-controlled trial of COVID-19 interventions in the world. It currently evaluates drugs for pre-hospitalization.

[9] = system: experimental autoimmune encephalomyelitis (EAE); conditions: cited from earlier work
[10] = cited from earlier work; remark: listed apart in the source
[11] = intent to treat analysis of 1649 participants
[12] = pooled, fluvoxamine vs blinded placebo
[13] = two randomized trials pooled, intent to treat
[14] = Bayesian, moderately optimistic prior
[15] = Together, N = 741, MedDRA body system

COCCCC/C(=N\OCCN)c1ccc(C(F)(F)F)cc1.O=C(O)/C=C\C(=O)O [fluvoxamine, 5-methoxy-4′-(trifluoromethyl)valerophenone-(E)-O-(2-aminoethyl)oxime maleate (1:1)]
LPS-induced cytokine production by human cells [1]: reduce LPS-induced cytokine production | HEK293T-ACE2-TMPRSS2 cell IC50 [2]: 4.579 µg/mL | Effect on endotoxic shock-induced death ([3]; S1R KO animals): no significant effect | Cytokine levels ([3]; wildtype mice exposed to LPS or fecal slurry): reduced cytokine levels | Survival [3]: increased survival | Survival ([3]; listed as FLV): enhanced survival | reduction in hospitalizations (COVID-19 [4]; [11]): Summary of the two randomized clinical trial data demonstrate a 25% | reduction in progression to severe disease with hypoxia ≤92%, ER visit >6 hour (with hypoxia), or hospitalizations (COVID-19 [4]; [11]): reduction in hospitalizations and 36% reduction in progression to severe | reduction in hospitalizations (COVID-19 [4]; intent to treat, vs placebo): 25% | Number needed to treat (COVID-19 [4]; pooled): approximately 20 | Hospitalization, Absolute Risk Reduction (COVID-19 [4]; [12]): 3.1% | Mortality, Absolute Risk Reduction (COVID-19 [4]; [12]): 0.9% | Progression to Severe COVID-19, Absolute Risk Reduction (COVID-19 [4]; [12]): 5.4% | Hospitalization, % (COVID-19 [4]; [13]): 9.3% | Hospitalization, n/N (COVID-19 [4]; [13]): (76/821) | Mortality, % (COVID-19 [4]; [13]): 2.1% | Mortality, n/N (COVID-19 [4]; [13]): (17/821) | Progression to Severe COVID-19 (Hospitalization or ER Visit >6 hr or Hypoxia <92%), % (COVID-19 [4]; [13]): 9.6% | Progression to Severe COVID-19, n/N (COVID-19 [4]; [13]): (79/821) | Nausea, % of patients ([5]; 35,368 people, 66 studies): 15.7% | Another serious adverse event (suicide attempt, depression, death, accidental injury) ([5]; in vivo): < 0.4% | Serious adverse events requiring hospitalization ([5]; in vivo): 1.6% | Serious adverse events, % of people ([5]; taking the medication for a psychiatric disorder): approximately 2.0% | Probability RR <1 (COVID-19 [6]; [14]): 97.2% | Probability RR ≤0.9 (COVID-19 [6]; [14]): 89.9% | Probability RR <1 (COVID-19 [6]; Bayesian, weakly neutral prior): 94.1% | Probability RR ≤0.9 (COVID-19 [6]; Bayesian, weakly neutral prior): 81.6% | Probability RR <1 (COVID-19 [6]; Frequentist analysis): 98.3% | Probability RR ≤0.9 (COVID-19 [6]; Frequentist analysis): 91.1% | Probability of at least a moderate effect (COVID-19 [6]; frequentist meta-analysis): 91.1% | Probability that fluvoxamine prevents hospitalization (COVID-19 [6]; frequentist meta-analysis): 98.3% | ED or hospital encounter within 30 days, % (SARS-CoV-2 infection): 21.1% | half-life [7]: 9 to 28 h | Treatment emergent adverse event Grade 1, % ([8]; TOGETHER, fluvoxamine group): (3%) | Treatment emergent adverse event Grade 1, n/N ([8]; TOGETHER, fluvoxamine group): 20/741 | Treatment emergent adverse event Grade 2, % ([8]; TOGETHER, fluvoxamine group): (10%) | Treatment emergent adverse event Grade 2, n/N ([8]; TOGETHER, fluvoxamine group): 72/741 | Treatment emergent adverse event Grade 3, % ([8]; TOGETHER, fluvoxamine group): (5%) | Treatment emergent adverse event Grade 3, n/N ([8]; TOGETHER, fluvoxamine group): 38/741 | Treatment emergent adverse event Grade 4, % ([8]; TOGETHER, fluvoxamine group): (3%) | Treatment emergent adverse event Grade 4, n/N ([8]; TOGETHER, fluvoxamine group): 21/741 | Treatment emergent adverse event Grade 5, % ([8]; TOGETHER, fluvoxamine group): (2%) | Treatment emergent adverse event Grade 5, n/N ([8]; TOGETHER, fluvoxamine group): 18/741 | Cardiac disorders, % of AEs [8, 15]: (0.6%) | Cardiac disorders, number of AEs [8, 15]: 1 | Ear and labyrinth disorders, % of AEs [8, 15]: (0.6%) | Ear and labyrinth disorders, number of AEs [8, 15]: 1 | Gastrointestinal disorders, % of AEs [8, 15]: (9.2%) | Gastrointestinal disorders, number of AEs [8, 15]: 16 | Hepatobiliary disorders, % of AEs [8, 15]: (0%) | Hepatobiliary disorders, number of AEs [8, 15]: 0 | Infections and infestations, % of AEs [8, 15]: (49%) | Infections and infestations, number of AEs [8, 15]: 85 | Metabolism and nutrition disorders, % of AEs [8, 15]: (2.3%) | Metabolism and nutrition disorders, number of AEs [8, 15]: 4 | Musculoskeletal and connective tissue disorders, % of AEs [8, 15]: (2.3%) | Musculoskeletal and connective tissue disorders, number of AEs [8, 15]: 4 | Nervous system disorders, % of AEs [8, 15]: (1.7%) | Nervous system disorders, number of AEs [8, 15]: 3 | Psychiatric disorders, % of AEs [8, 15]: (2.9%) | Psychiatric disorders, number of AEs [8, 15]: 5 | Renal and urinary disorders, % of AEs [8, 15]: (0.6%) | Renal and urinary disorders, number of AEs [8, 15]: 1 | Reproductive system and breast disorders, % of AEs [8, 15]: (0.6%) | Reproductive system and breast disorders, number of AEs [8, 15]: 1 | Respiratory, thoracic and mediastinal disorders, % of AEs [8, 15]: (6.3%) | Respiratory, thoracic and mediastinal disorders, number of AEs [8, 15]: 11 | Skin and subcutaneous tissue disorders, % of AEs [8, 15]: (0%) | Skin and subcutaneous tissue disorders, number of AEs [8, 15]: 0 | Vascular disorders, % of AEs [8, 15]: (1.1%) | Vascular disorders, number of AEs [8, 15]: 2 | N individual AEs ([8]; Together, N = 741 participants): 174 | Participants who stopped owing to issues of tolerability, No. ([8]; of 741): 84 | Severity of EAE ([9]; rats, also when treatment began 12 days post-induction): reduces the severity | IFN-γ serum levels ([9]; vs untreated EAE rats): decrease | IL-4 serum levels ([9]; vs untreated EAE rats): increase | volume of distribution [V/F] ([10]; one-compartment model): 928 L | Free fraction in plasma ([10]; unbound to plasma proteins): 20%
